Measured values taken from patent publication US20140294994A1, “PHARMACEUTICAL COMPOSITION FOR ELIMINATION OF CANCER STEM CELLS” (priority 2011, published 2014).
Entries after “also recorded” stand apart in the source; their conditions may differ.

Columns and labels:
[1] = tested on: A549 cells; experiment: MTT assay (cell viability); format: cell-based, human
Text: (§1) In addition to the commonly used cell lines (A549 and H1975), we also established several cell lines including CL83, CL141, CL152, CL25, and CL97 cell lines which were isolated from the pleural effusion of NSCLC patients at the National Taiwan University Hospital. The investigation was approved by the Institutional Review Board of the National Taiwan University Hospital. Informed consent was obtained before pleural effusion was collected.

[2] = tested on: CL141 cells; experiment: MTT assay (cell viability); format: cell-based; conditions: Homo sapiens; CL141 cell line, 48 hour incubation; read-out: IC50 for trifluoperazine
Text: as §1

[3] = tested on: CL152 cells; experiment: MTT assay (cell viability); format: cell-based; conditions: Homo sapiens; CL152 cell line, 48 hour incubation; read-out: IC50 for trifluoperazine
Text: as §1

[4] = tested on: CL25 cells; experiment: MTT assay (cell viability); format: cell-based; conditions: Homo sapiens; CL25 cell line, 48 hour incubation; read-out: IC50 for trifluoperazine
Text: as §1

[5] = tested on: CL83 cells; experiment: MTT assay (cell viability); format: cell-based; conditions: Homo sapiens; CL83 cell line, 48 hour incubation; read-out: IC50 for trifluoperazine
Text: as §1

[6] = tested on: CL97 cells; experiment: MTT assay (cell viability); format: cell-based; conditions: Homo sapiens; CL97 cell line, 48 hour incubation; read-out: IC50 for trifluoperazine
Text: as §1

[7] = tested on: H1975 cells; experiment: MTT assay (cell viability); format: cell-based; conditions: Homo sapiens, NCI-H1975; H1975 cell line, 48 hour incubation; read-out: IC50 for trifluoperazine
Text: as §1

[8] = tested on: A549 cells; experiment: Clonogenic assay; format: cell-based, human
Procedure: The NSCLC cancer cell lines, A549, H1975, CL25, CL83, CL97, CL141, and CL152 were maintained in RPMI medium. Tested cells were seeded respectively in 6 well plates with 10^4 cells per well for 14 days. Each well contained 10 ml RPMI medium as cultured condition for NSCLC cells. […] Trifluoperazine and other tested drugs were added 24 hours after seeding of the cells. The medium and trifluoperazine were changed once on day 4. After the treatments, cells were washed with PBS, and the colonies were fixed with fix solution (acetic acid:methanol=1:3) and stained with 0.5% crystal violet in methanol. After removing the crystal violet carefully and rinse with tap water, the colonies were counted manually.

[9] = tested on: CL141 cells; experiment: Side population analysis (Hoechst 33342, flow cytometry); format: cell-based, human
Procedure: (§2) Single-cell suspensions of cells were detached from dishes with Trypsin-EDTA (Invitrogen) and suspended at 1×10^6 cells/mL in Hank's balanced salt solution (HBSS) supplemented with 3% fetal calf serum and 10 mM Hepes. […] After 90 minutes incubation, the cells were centrifuged immediately for 5 minutes at 300 g and 4° C. and resuspended in ice-cold HBSS. The cells were kept on ice to inhibit efflux of the Hoechst dye, and 1 μg/mL propidium iodide (BD) was added to discriminate dead cells. Finally, these cells were filtered through a 40 μm cell strainer (BD) to obtain single-suspension cells. Cell dual-wavelength analysis and purification were performed on a dual-laser FACS Vantage SE (BD). […] A 610 nm dichroic mirror short-pass (DMSP) was used to separate the emission wavelengths. PI-positive (dead) cells were excluded from the analysis.

[10] = tested on: CL83 cells; experiment: as above; format: cell-based, human; conditions: 5 μM, untreated 1.54%
Procedure: as §2

[11] = tested on: CL97 cells; experiment: as above; format: cell-based, human; conditions: 5 μM, untreated 1.9%
Procedure: as §2

[12] = tested on: CL141 cells; experiment: Aldefluor assay (ALDH-positive cells); format: cell-based, human
Procedure: (§3) High aldehyde dehydrogenase (ALDH) enzyme activity was used to detect lung CSC populations in this study. The Aldefluor assay was performed according to the manufacturer's guidelines (StemCell Technologies). Briefly, single cells obtained from cell cultures were incubated in an Aldefluor assay buffer containing an ALDH substrate (bodipy-aminoacetaldehyde, BAAA) for 50 minutes at 37° C. As a negative control, a fraction of cells from each sample was incubated under identical conditions in the presence of an ALDH inhibitor (diethylaminobenzaldehyde, DEAB). Flow cytometry was used to measure the ALDH-positive cell population.

[13] = tested on: CL152 cells; experiment: Aldefluor assay (ALDH-positive cells); format: cell-based, human; conditions: 5 μM, untreated 3.73%
Procedure: as §3

[14] = tested on: CL141 spheroids; experiment: Soft agar assay (colony formation); format: cell-based, human; conditions: 12 days, control 92
Procedure: Freshly sorted CL141 side population (SP) and non-side population (NSP) cells were counted and plated in triplicate at 200 cells per well in six-well plates coated with 1% agarose. Anchorage-independent growth was assessed after incubation for 10-14 days in culture media with or without trifluoperazine (0, 5 and 10 μM), which was replaced every 4 days. Plates were stained with 0.005% crystal violet, and the colonies were counted manually under a microscope and photographed.

[15] = tested on: CL141 cells; experiment: Annexin V/PI staining apoptosis analysis; format: cell-based, human; conditions: 48 hours, versus control cells
Procedure: […]. Annexin V/PI staining was performed after treatment with different dosages of trifluoperazine. Both early and late apoptotic cells were counted.

[16] = tested on: CL97 spheroids; experiment: Western blotting analysis of cancer spheroids; format: cell-based, human
Procedure: (§4) Cells were lysed in lysis buffer (50 mM Tris-HCl, pH 7.4, 5 mM MgCl2, 1% Nonidet P-40, 150 mM NaCl, 1 mM phenylmethylsulfonyl fluoride). Total protein was isolated and subjected to SDS polyacrylamide gel electrophoresis and electrotransfered onto PVDF membranes (Millipore). Primary antibodies Bax, Bak, Bcl-2, XIAP, Mcl-1, Cleaved Caspase 9, Caspase 3, […], c-Myc, CD44, cyclin D1 were obtained from Cell Signaling, Met was purchased from Santa Cruz and CD133 was from Miltenyi Biotec, and secondary antibodies for anti-mouse and anti-rabbit horseradish preoxidase (HRP)-conjugation were from Chemicon International. The protein detection was performed with enhanced chemiluminescence (ECL™) method captured by a Luminescence Imaging System (LAS-4000™, Fuji Photo Film Co., Ltd).

[17] = tested on: CL141 spheroids; experiment: Western blotting and immunochemical staining of cancer spheroids; format: cell-based, human; conditions: CL141 spheroids, 0, 2.5, 5 and 10 μM, 48 hours
Procedure: as §4

[18] = tested on: CL83 spheroids; experiment: Tumor spheroid assay; format: cell-based, human; conditions: 48 hr
[19] = tested on: CL141 spheroids; experiment: Tumor spheroid assay; format: cell-based, human; conditions: 48 hr
[20] = tested on: CL97 spheroids; experiment: Tumor spheroid assay; format: cell-based, human; conditions: 48 hr
[21] = tested on: CL97-L2G cells; experiment: Bulk lung tumor model, bioluminescent imaging; format: in vivo, NOD/SCID mice; conditions: 4 weeks, trifluoperazine 5 mg/kg/day i.p., gefitinib 150 mg/kg/day oral gavage, combination trifluoperazine 5 mg/kg/day i.p. + gefitinib 100 mg/kg/day oral
Procedure: For bulk lung tumor model, CL97-[…] cells were intravenously administered into the animals via tail vein at a concentration of 1×10^6 cells/100 μl PBS. One week post tumor injection, different treatment regimens were started. […] CL97-[…]-bearing mice (both bulk lung tumor and CSC models) were imaged weekly using the IVIS 200 system (Caliper Life Sciences). Data are expressed as fold change in total photon flux/initial total photon flux and were analyzed using Living Image 1.0 software (Caliper Life Sciences). Mice were humanely sacrificed at the end of experiments and lung tumor biopsies were obtained for further analysis.

[22] = tested on: CL97-L2G spheroids; experiment: Prevention experiment, pretreated spheroids orthotopically injected into lung; format: in vivo, NOD/SCID mice; conditions: cells pre-treated with 5 μM overnight, versus vehicle-treated control
Procedure: (§5) . […] CL97-L2G-bearing mice (both bulk lung tumor and CSC models) were imaged weekly using the IVIS 200 system (Caliper Life Sciences). Data are expressed as fold change in total photon flux/initial total photon flux and were analyzed using Living Image 1.0 software (Caliper Life Sciences). Mice were humanely sacrificed at the end of experiments and lung tumor biopsies were obtained for further analysis.

[23] = tested on: CL97-L2G tumor samples; experiment: Protein profiles of tumor biopsies (Western blot); format: in vivo, NOD/SCID mice; conditions: tumor biopsies of treated mice
Procedure: Total cell lysates were harvested from tumor biopsies of mice which received different treatments and their protein profiles were examined.
as §4, §5

[24] = tested on: CL141 spheroids; experiment: Cisplatin response of spheroids versus parental cells (IC50, viability, caspase-3 activity); format: cell-based, human
Text: (§6) We selected three gefitinib-resistant NSCLC cell lines, CL141 (wild type EGFR), CL83 (wild type EGFR) and CL97 (EGFR-G719A+T790M acquired resistant mutation) to determine if trifluoperazine could sensitize these cells towards chemotherapeutic agents.

[25] = tested on: CL83 spheroids; experiment: as above; format: cell-based, human
Text: as §6

[26] = tested on: CL97 spheroids; experiment: as above; format: cell-based, human
Text: as §6

[27] = Homo sapiens, A549 cells, read-out: MTT assay (IC50)
[28] = A549 cells, read-out: MTT assay (IC50)

Compound: CN1CCN(CCCN2c3ccccc3Sc3ccc(C(F)(F)F)cc32)CC1 [Trifluoperazine]
- IC50 ([1]; Homo sapiens, A549 cell line, read-out: IC50 for trifluoperazine): > 10 µM
- IC50 [1, 27]: > 10 µM
- IC50 [2]: 8.5 µM
- IC50 [3]: 12 µM
- IC50 [4]: 13 µM
- IC50 [5]: 14 µM
- IC50 [6]: 7.2 µM
- IC50 [7]: 15 µM
- IC50 ([8]; Homo sapiens): 1.25 to 2.5 µM
- Reduced side population [9]: Yes
- percentage of side population cells after treatment [10]: significantly decreased
- percentage of side population cells after treatment [11]: significantly decreased
- ALDH-positive cell population after treatment ([12]; CL141 cells, 5 μM, untreated 4.31%): 0.84%
- percentage of ALDH+ CL141 cells ([12]; trifluoperazine 10 μM alone or combined with 5 μM gefitinib): moderately decreased
- ALDH-positive cell population after treatment [13]: 1.08%
- mean colony number on soft agar ([14]; 5 μM): 32
- mean colony number on soft agar ([14]; 10 μM): 8
- Annexin V-positive cells [15]: dose-dependent increase
- Bax, Bak, cleaved PARP, caspase-3 and caspase-9 levels ([16]; CL97 cancer spheroids): increased dose-dependently
- anti-apoptotic Bcl-2, XIAP and Mcl-1 levels ([16]; CL97 cancer spheroids): decreased
- CD44 and CD133 expression ([16]; CL97 spheroids, 0, 2.5, 5 and 10 μM, 48 hours): dose-dependently down-regulated
- Cyclin D1, c-Myc and c-Met expression ([16]; CL97 spheroids, 48 hr): decreased
- CD44 and CD133 expression [17]: dose-dependently down-regulated
- size and number of spheroids [18]: dose-dependently decreased
- size and number of spheroids [19]: dose-dependently decreased
- size and number of spheroids [20]: dose-dependently decreased
- tumor burden (fold change in bioluminescence intensity) [21]: significantly reduced tumor burden; also recorded: significantly lower tumor burden
- in-situ tumor growth (fold change in BLI) [22]: significantly delayed and suppressed; also recorded: delayed and significantly reduced in-situ tumor growth
- Cyclin D1 expression in tumor samples [23]: suppressed
- activated form of caspase 3 in tumor samples [23]: increased

Compound: Pherphenazine [Perphenazine]
- IC50 [1, 28]: > 10 µM
- IC50 [8]: 5 to 10 µM
- Reduced side population [9]: Yes

Compound: CN(C)CCCN1c2ccccc2Sc2ccccc21 [Promazine]
- IC50 [1, 27]: > 10 µM
- Reduced side population [9]: Yes

Compound: Thioridazine
- Reduced side population [9]: Yes

Compound: COc1cc2ncnc(Nc3ccc(F)c(Cl)c3)c2cc1OCCCN1CCOCC1 [gefitinib]
- tumor burden (fold change in bioluminescence intensity) [21]: not significantly different
- tumor burden (fold change in bioluminescence intensity) ([21]; listed as genfitnib): no effects in suppressing tumor recurrence
- c-Myc and β-catenin expression in tumor samples [23]: did not significantly influence

Compound: Promethazine
- IC50 [1, 28]: > 10 µM
- IC50 [8]: 5 to 10 µM
- Reduced side population [9]: No

Compound: CN(C)CCCN1c2ccccc2Sc2ccc(Cl)cc21 [Chlorpromazine]
- IC50 [1, 28]: 5 to 10 µM
- IC50 [8]: 2.5 to 5 µM
- Reduced side population [9]: Yes

Compound: CN(C)CCCN1c2ccccc2Sc2ccc(C(F)(F)F)cc21 [Triflupromazine]
- IC50 [1, 27]: > 10 µM
- Reduced side population [9]: Yes

Compound: N.N.[Cl][Pt][Cl] [cisplatin]
- IC50 of spheroids compared with parental cells [24]: significantly higher IC50
- caspase-3 activity of spheroids compared with parental cells ([24]; 10 μM, 24 hours): lower caspase-3 activity
- viability of spheroids compared with parental cells ([24]; 10 μM, 24 hours): higher viability
- IC50 of spheroids compared with parental cells [25]: significantly higher IC50
- caspase-3 activity of spheroids compared with parental cells ([25]; 10 μM, 24 hours): lower caspase-3 activity
- viability of spheroids compared with parental cells ([25]; 10 μM, 24 hours): higher viability
- IC50 of spheroids compared with parental cells [26]: significantly higher IC50
- caspase-3 activity of spheroids compared with parental cells ([26]; 10 μM, 24 hours): lower caspase-3 activity
- viability of spheroids compared with parental cells ([26]; 10 μM, 24 hours): higher viability

Compound: CN1CCN(CCCN2c3ccccc3Sc3ccc(Cl)cc32)CC1 [Prochlorperazine]
- Reduced side population [9]: No

Compound: CC(=O)c1ccc2c(c1)N(CCCN(C)C)c1ccccc1S2 [Acepromazine]
- IC50 [1, 27]: > 10 µM
- IC50 ([8]; Homo sapiens): 1 to 2.5 µM
- Reduced side population [9]: No

Compound: OCCN1CCN(CCCN2c3ccccc3Sc3ccc(C(F)(F)F)cc32)CC1 [Fluphenazine]
- Reduced side population [9]: No
